Measurements published in PMC5342071, “A first generation inhibitor of human Greatwall kinase, enabled by structural and functional characterisation of a minimal kinase domain construct” (Oncotarget, 2016).

Experiments:
hGWL-KinDom = target: T1, hGWL-KinDom (Homo sapiens, UniProt Q96GX5); assay: Kinase-Glo Max luminescence kinase assay with hGWL-KinDom; assay type: biochemical; settings: Kinase-Glo Max assay; read-out: IC50 GWL-KinDom
T1 construct: that encoded amino acids (aa) 1-194 + ‘RTFC’ + 740-879 of hGWL; GST (rhinovirus 3C-protease cleavable) (N, cleaved yes); made in house; host or cells: E. coli Rosetta2(DE3)
T1 sequence (Q96GX5 with tags, fused parts or gaps limits assumed): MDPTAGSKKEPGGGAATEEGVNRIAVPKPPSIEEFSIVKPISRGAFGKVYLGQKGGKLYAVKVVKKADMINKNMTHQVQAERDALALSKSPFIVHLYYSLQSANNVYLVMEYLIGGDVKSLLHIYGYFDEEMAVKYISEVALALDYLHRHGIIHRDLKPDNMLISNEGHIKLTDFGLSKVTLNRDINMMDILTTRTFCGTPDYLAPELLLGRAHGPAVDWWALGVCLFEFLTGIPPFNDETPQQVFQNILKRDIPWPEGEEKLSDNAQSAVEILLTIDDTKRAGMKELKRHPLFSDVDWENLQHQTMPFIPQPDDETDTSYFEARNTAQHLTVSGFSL
Procedure: Non-radioactive kinase assays were set-up by combining hGWL-KinDom (305 µM in 20 mM HEPES pH 7.5, FL 500 mM NaCl, and 0.5 mM TCEP) diluted to desired concentration or immunoprecipitated hGWL on beads with ultra-pure ATP [Promega, 25 µM] and His-tagged substrate  α-endosulfine (ENSA, 2 µM) in kinase assay buffer (50 mM Tris-HCl pH 7.5, 0.5 mM EGTA, 150 mM NaCl, 0.1% v/v NP-40 and 15 mM MgCl2). The reaction was allowed to proceed for 30 min at 37 °C or another indicated time-point after which it was stopped with either SDS loading buffer (5X buffer, including 0.25 % w/v Bromophenol blue, 0.5 M DTT (dithiothreitol), 50% v/v Glycerol, 10% v/v SDS (sodium dodecyl sulphate), and 0.25M Tris-HCl pH 6.8) or Kinase-Glo Max reagent [Promega]. Recombinant His-tagged ENSA was purified using Ni-NTA agarose [QIAGEN] from BL21 E. coli following the manufacturer’s recommended protocol. […]
(§1) All kinase assays were repeated thrice per assay condition and each point on the concentration-dependent response curves represents the mean ± […]
After stopping the above non-radioactive kinase assay with 1 volume of Kinase-Glo Max reagent the mixture was allowed to incubate for a further 15 min. To detect consumption of ATP, samples were transferred to white, flat-bottom 96-well plates [Thermo Fisher Scientific, Loughborough, UK] and luminescence was detected using a POLARstar Omega micro-plate reader [BMG Labtech GmbH, Ortenberg, Germany]. As this assay measures ATP, activity or ATP turnover was measured as the -ΔRLU. […]

hGWL^FL = target: T2, hGWL^FL (Homo sapiens, UniProt Q96GX5); assay: Immunoprecipitation kinase assay with Flag-tagged hGWL^FL (p-ENSA western); assay type: biochemical; settings: for IC50: immunoprecipitated Flag-tagged hGWL^FL, read-out: IC50 GWL^FL
T2 construct: N-terminally FLAG-tagged full-length human GWL; made in house; host or cells: HEK293T cells, transfected and nocodazole-arrested; protein captured on anti-Flag M2 beads
T2 sequence (Q96GX5 1-879): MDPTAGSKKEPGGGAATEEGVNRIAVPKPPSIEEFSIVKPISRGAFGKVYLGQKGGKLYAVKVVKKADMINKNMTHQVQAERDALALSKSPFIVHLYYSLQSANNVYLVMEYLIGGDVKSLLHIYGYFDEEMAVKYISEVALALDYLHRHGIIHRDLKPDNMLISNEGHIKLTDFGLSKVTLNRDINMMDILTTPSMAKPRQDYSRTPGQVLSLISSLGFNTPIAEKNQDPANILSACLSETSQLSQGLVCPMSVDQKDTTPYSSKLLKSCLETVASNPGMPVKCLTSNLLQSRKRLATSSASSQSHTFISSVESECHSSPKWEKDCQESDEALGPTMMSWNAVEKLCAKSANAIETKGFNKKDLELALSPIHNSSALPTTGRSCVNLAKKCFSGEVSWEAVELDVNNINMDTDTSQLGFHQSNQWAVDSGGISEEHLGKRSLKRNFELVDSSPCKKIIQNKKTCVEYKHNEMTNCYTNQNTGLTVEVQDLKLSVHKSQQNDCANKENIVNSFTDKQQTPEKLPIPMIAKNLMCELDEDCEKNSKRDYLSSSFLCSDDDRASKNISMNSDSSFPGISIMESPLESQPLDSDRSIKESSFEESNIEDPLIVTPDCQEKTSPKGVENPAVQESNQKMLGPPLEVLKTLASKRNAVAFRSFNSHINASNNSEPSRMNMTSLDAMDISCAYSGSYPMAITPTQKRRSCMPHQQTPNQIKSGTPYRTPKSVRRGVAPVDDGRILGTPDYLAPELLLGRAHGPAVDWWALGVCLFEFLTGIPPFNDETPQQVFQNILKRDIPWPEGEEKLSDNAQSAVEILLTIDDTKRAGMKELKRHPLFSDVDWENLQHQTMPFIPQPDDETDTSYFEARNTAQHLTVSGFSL
Procedure: 500 mM NaCl, and 0.5 mM TCEP) diluted to desired concentration or immunoprecipitated hGWL on beads with ultra-pure ATP [Promega, 25 µM] and His-tagged substrate  α-endosulfine (ENSA, 2 µM) in kinase assay buffer (50 mM Tris-HCl pH 7.5, 0.5 mM EGTA, 150 mM NaCl, 0.1% v/v NP-40 and 15 mM MgCl2). The […]
(dithiothreitol), 50% v/v Glycerol, 10% v/v SDS (sodium dodecyl sulphate), and 0.25M Tris-HCl pH 6.8) or Kinase-Glo Max reagent [Promega]. Recombinant His-tagged ENSA was purified using Ni-NTA agarose [QIAGEN] from BL21 E. coli following the manufacturer’s recommended protocol. […]
as §1
Immunoprecipitation Kinase Assay
HEK293T cells were transfected with 10 µg of plasmid (Flag-tagged hGWLFL or GFP; pcDNA3-EGFP, Addgene, Cambridge MA, USA) using CaCl2. […]
incubated for a further 16–18 h. Cells were collected and washed in PBS-A followed by lysis on ice for 20 min in 1mL IP buffer (50 mM Tris-HCl pH 7.5, 150 mM NaCl, 10% v/v glycerol, 0.5% v/v NP-40, 1 mM EDTA supplemented with protease and phosphatase inhibitors (Complete and PhosStop; Roche Diagnostics)). Samples were then sonicated and clarified by centrifugation at 13,000 rpm for 30 min at 4°C. To capture Flag-tagged […]
hGWLFL, 100 µl of lysate was diluted 5-fold with IP buffer and combined with 3 µl anti-Flag M2 magnetic Dynabeads [Sigma-Aldrich] overnight at 4 °C. After sequential washes with IP buffer, 1:1 mix of IP and kinase assay buffers and a final wash in kinase assay buffer, the beads were then used in the kinase assay. The reaction was stopped by adding SDS loading buffer and analysed by western blot: p-ENSA and GWL levels were detected using the anti-phospho(Ser67)-ENSA and anti-MASTL(GWL, Prestige) antibodies. Activity was measured as the p-ENSA/GWL ratio and % kinase activity was normalised to the DMSO control. All kinases assays were repeated thrice per assay condition and each point on the concentration-dependent response curves represents the mean ± 1 S.D. […]

| IC50 (hGWL-KinDom) [µM] | inhibitory ratio (IC50 GWL^FL/IC50 GWL-KinDom) (hGWL^FL; for GKI-1: EC50 hGWL^FL vs IC50 hGWL-KinDom) | EC50 (hGWL^FL; immunoprecipitated hGWL^FL, read-out: EC50 GWL^FL) [µM] | IC50 (hGWL^FL) [µM] | SMILES |
| --- | --- | --- | --- | --- |
| 2.5 | ~ 2 | 4.9 |  | Clc1ccc(Nc2cccc(-c3cn[nH]c3)c2)cc1 [GKI-1, N-(4-chlorophenyl)-3-(1H-pyrazol-4-yl)aniline] |
| 109 ± 13.7 |  |  | 66 | CN(C)CC#Cc1cccc(C(=O)c2cnn(-c3ccc(F)cc3)c2N)c1 [GRI-3] |
| 3.22 ± 0.31 |  |  | 2.5 | CCN(CC)Cc1ccc(Nc2nccc(-c3cnn4ncccc34)n2)cc1 [GRI-4] |
